Bounds are passed on as bounds.

Series [1] can be described thus: Plasma concentration after administration to an animal. It is filed as in vivo.
Series [2] can be described thus: Aqueous solubility. Format: physicochemical.
In series [3] the target is human TRPV1 (Homo sapiens (Human), UniProt Q8NER1). Briefly: Capsaicin-based assay, Protocol 2 (hCAP-CHO). The note with it: TRPV1/CHO cells, 100 nM capsaicin; mean ± SEM; read-out: TRPV1 IC50 Potency Human Capsaicin CHO (hCAP-CHO). It is filed as cell-based. From the text:
The TRPV1/CHO cell line was generated as described below. […] The resulting PCR products were purified from agarose gels using Gel Band Purification Kit (GE Healthcare Bioscience) and were subcloned into pCR-Blunt vector (Invitrogen). The cloned cDNA was fully sequenced using a fluorescent dye-terminator reagent (BigDye Terminator ver3.1 Cycle Sequencing Kit, Applied Biosystems) and ABI Prism 3100 genetic analyzer (Applied Biosystems). The pCR-Blunt vector containing the hTRPV1 cDNA was subjected to restriction digestion with EcoR1. The restriction fragment was subcloned into expression vector pcDNA3.1(-) (Invitrogen) and named pcDNA3.1(-)-hVR1 plasmid. The sequence of the cDNA encoding TRPV1 is available at GenBank accession number AJ277028. […] The cells were transfected with the pcDNA3.1(-)-hVR1 plasmid using FuGENE6 (Roche) according to the manufacturer's protocol. 24 hr after transfection, neomycin-resistant cells were selected using 1 mg/mL G418 (Nacalai Tesque). […] The cells expressing hTRPV1 were cultured in the growth medium supplemented with 1 mg/mL G418. […] Subsequently, the cells were loaded by incubation in 0.1 mL of wash buffer containing Fluo-4 at 3 μM final concentration. After 1 hour, the cells were washed twice with 0.2 mL wash buffer and resuspended in 0.1 mL wash buffer. The plates were then transferred to a Fluorescence Imaging Plate Reader (Molecular Devices). Fluorescence intensity was monitored for 15 seconds to establish a baseline. […] The final concentration of the compound was adjusted to range from 100 μM to 1.5625 μM. […] Data were collected over the entire time course and analyzed using Excel and the curve-fitting formula GraphPad Prism.

human TRPV1, sequence (Q8NER1 whole entry, the tested form may be a part): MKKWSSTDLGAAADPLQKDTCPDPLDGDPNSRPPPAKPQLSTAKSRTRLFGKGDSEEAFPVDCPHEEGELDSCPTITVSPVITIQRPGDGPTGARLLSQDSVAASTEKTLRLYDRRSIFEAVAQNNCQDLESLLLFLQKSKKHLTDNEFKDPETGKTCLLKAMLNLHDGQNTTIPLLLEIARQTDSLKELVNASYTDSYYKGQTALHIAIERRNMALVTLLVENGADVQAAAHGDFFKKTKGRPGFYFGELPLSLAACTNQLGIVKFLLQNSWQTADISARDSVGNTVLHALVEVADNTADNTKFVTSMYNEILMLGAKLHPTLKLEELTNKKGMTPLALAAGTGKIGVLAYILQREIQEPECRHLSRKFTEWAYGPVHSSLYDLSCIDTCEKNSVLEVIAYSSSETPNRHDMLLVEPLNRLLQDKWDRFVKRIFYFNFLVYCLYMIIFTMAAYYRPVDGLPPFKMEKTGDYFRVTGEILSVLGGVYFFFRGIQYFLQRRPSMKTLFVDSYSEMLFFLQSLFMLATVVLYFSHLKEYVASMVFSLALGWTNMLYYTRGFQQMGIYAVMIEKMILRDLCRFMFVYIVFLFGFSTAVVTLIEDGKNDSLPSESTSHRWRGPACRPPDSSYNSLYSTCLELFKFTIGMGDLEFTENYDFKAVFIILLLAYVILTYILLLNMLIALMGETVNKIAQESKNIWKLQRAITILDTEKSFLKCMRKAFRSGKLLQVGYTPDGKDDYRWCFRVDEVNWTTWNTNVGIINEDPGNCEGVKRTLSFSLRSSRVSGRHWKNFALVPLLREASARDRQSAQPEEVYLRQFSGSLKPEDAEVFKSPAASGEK

With `O=C(Nc1ccc(C(F)(F)F)cc1)N1CC=C(c2ncccc2Cl)CC1` [Compound 200], in series [1] (animal plasma), the “time to maximum plasma concentration after administration” value was determined as 3.1 h. In series [2], the “aqueous solubility at pH 1.2” value was below 0.1 μM, the “aqueous solubility at pH 6.8” value is given as below 0.1 μM and the “aqueous solubility at pH 6.8 (in words)” value was “insoluble”.

Take `O=C(Nc1ccc(C(F)(F)F)cc1)N1CCC(F)(c2ncccc2Cl)CC1` [Compound 203]: in series [2], the “aqueous solubility at pH 6.8 (in words)” value is “insoluble”.

For the molecule `O=C(Nc1ccc(C(F)(F)F)cc1)N1CCC(F)(c2ncccc2F)CC1` [Compound 207], the “aqueous solubility at pH 6.8 (in words)” value in series [2] is “insoluble”.

As to `O=C(Nc1ccc(C(F)(F)F)cc1)N1CC=C(c2ncccc2F)CC1` [Compound 208], the “aqueous solubility at pH 6.8 (in words)” value in series [2] is recorded as “insoluble”.

For `O=C(Nc1ccc(C(F)(F)F)c(F)c1)N1CCC(F)(c2ncccc2Cl)CC1` [Compound 209], in series [2], the “aqueous solubility at pH 1.2” value stood at 9.3 μM and the “aqueous solubility at pH 6.8” value is listed as 1.0 μM.

On to `O=C(Nc1ccc(S(=O)(=O)C(F)(F)F)cc1)N1CCC(F)(c2ncccc2Cl)CC1` [Compound 210], for which, in series [2], the “aqueous solubility at pH 1.2” value amounted to 2.0 μM and the “aqueous solubility at pH 6.8” value was 0.4 μM.

On to `O=C(Nc1ccc(OC(F)(F)F)cc1)N1CCC(F)(c2ncccc2Cl)CC1` [Compound 211], for which, in series [2], the “aqueous solubility at pH 1.2” value turned out to be 1.3 μM and the “aqueous solubility at pH 6.8” value turned out to be 0.4 μM.

For `O=C(Nc1ccc(C(F)(F)F)c(F)c1)N1CCC(F)(c2ncccc2F)CC1` [Compound 212], in series [2], the “aqueous solubility at pH 1.2” value is listed as 10.3 μM and the “aqueous solubility at pH 6.8” value is 1.9 μM.

In the case of `O=C(Nc1ccc(C(F)(F)F)c(F)c1)N1CC=C(c2ncccc2Cl)CC1` [Compound 213], in series [2], the “aqueous solubility at pH 1.2” value amounted to 39.6 μM and the “aqueous solubility at pH 6.8” value stood at 0.8 μM.

On to `O=C(Nc1ccc(OC(F)(F)F)cc1)N1CC=C(c2ncccc2Cl)CC1` [Compound 214], for which, in series [2], the “aqueous solubility at pH 1.2” value was above 50 μM and the “aqueous solubility at pH 6.8” value came to 1.8 μM.

`O=C(Nc1ccc(C(F)(F)F)c(Cl)c1)N1CC=C(c2ncccc2F)CC1` [Compound 215]: in series [2], the “aqueous solubility at pH 1.2” value was 9.6 μM and the “aqueous solubility at pH 6.8” value is listed as 0.6 μM.

Take `O=C(Nc1ccc(OC(F)(F)F)cc1)N1CCC(F)(c2ncc([C@H](O)CO)cc2Cl)CC1` [Compound C1]: in series [2], the “aqueous solubility at pH 1.2” value is above 50 μM and the “aqueous solubility at pH 6.8” value amounted to 15.7 μM.

Turning to `O=C1C=C(c2ncc([C@H](O)CO)cc2Cl)CCN1C(=O)Nc1ccc(C(F)(F)F)cn1` [Compound C6], the IC50 in series [3] is above 25000 nM.

Turning to `O=C(Nc1ccc(OC(F)(F)F)c(-c2ccccc2)c1)N1CC=C(c2ncc(CO)cc2Cl)CC1` [Compound D3], in series [3], the IC50 was found to be 565 ± 58.6 nM.

Take `CC(C)(C)c1ccc(NC(=O)N2CC=C(c3ncc([C@@H](O)CO)cc3Cl)CC2)cc1` [Compound E1]: the IC50 in series [3] was 18.5 ± 4.9 nM.

In the case of `O=C(Nc1ccc(OC(F)(F)F)cc1)N1CC=C(c2ncc([C@H](O)CO)cc2Cl)CC1` [Compound E2], in series [2], the “aqueous solubility at pH 1.2” value is given as above 50 μM and the “aqueous solubility at pH 6.8” value is above 50 μM.

As for `O=C(Nc1ccc(C(F)(F)F)c(F)c1)N1CCC(F)(c2ncc([C@H](O)CO)cc2Cl)CC1` [Compound F1], in series [2], the “aqueous solubility at pH 1.2” value was above 50 μM and the “aqueous solubility at pH 6.8” value is reported as 22.6 μM.

As to `CCOC(=O)c1cnc(C2=CCN(C(=O)Nc3ccc(C(F)(F)F)cc3)CC2)c(Cl)c1` [Compound F2], in series [2], the “aqueous solubility at pH 1.2” value is listed as 1.0 μM and the “aqueous solubility at pH 6.8” value amounted to 3.0 μM.

With `COC(=O)Cc1cnc(C2=CCN(C(=O)Nc3ccc(C(F)(F)F)cc3)CC2)c(Cl)c1` [Compound F6], in series [2], the “aqueous solubility at pH 1.2” value is given as above 50 μM and the “aqueous solubility at pH 6.8” value is 9.2 μM.

On to `CC(O)c1cnc(C2=CCN(C(=O)Nc3ccc(C(F)(F)F)cc3)CC2)c(Cl)c1` (stereo not drawn) [Compound G2], for which, in series [2], the “aqueous solubility at pH 1.2” value is on record as above 50 μM and the “aqueous solubility at pH 6.8” value was 38.2 μM.

`O=C(O)Cc1cnc(C2=CCN(C(=O)Nc3ccc(C(F)(F)F)cc3)CC2)c(Cl)c1` [Compound G6]: in series [2], the “aqueous solubility at pH 1.2” value is listed as above 50 μM and the “aqueous solubility at pH 6.8” value was above 50 μM.

As to `O=C(Nc1ccc(S(=O)(=O)C(F)(F)F)cc1)N1CCC(F)(c2ncc([C@H](O)CO)cc2Cl)CC1` [Compound H1], in series [2], the “aqueous solubility at pH 1.2” value is recorded as above 50 μM and the “aqueous solubility at pH 6.8” value was above 50 μM.

Turning to `CN(C)Cc1cnc(C2=CCN(C(=O)Nc3ccc(C(F)(F)F)cc3)CC2)c(Cl)c1` [Compound H6], in series [2], the “aqueous solubility at pH 1.2” value is on record as above 50 μM and the “aqueous solubility at pH 6.8” value is reported as above 50 μM.

Turning to `O=C(Nc1ccc(C(F)(F)F)cc1)N1CC=C(c2ncc(CO)cc2Cl)CC1` [Compound J2], in series [2], the “aqueous solubility at pH 1.2” value is listed as above 50 μM and the “aqueous solubility at pH 6.8” value is given as above 50 μM.

On to `CC(C)S(=O)(=O)c1ccc(NC(=O)N2CC=C(c3ncc(CO)cc3Cl)CC2)cc1` [Compound K3], for which the IC50 in series [3] was above 10000 nM.

Consider `O=C(O)c1cnc(C2=CCN(C(=O)Nc3ccc(C(F)(F)F)cc3)CC2)c(Cl)c1` [Compound M5], for which the IC50 in series [3] was above 25000 nM.

Consider `O=C(Nc1ccc(C(F)(F)F)cc1)N1CCC(F)(c2ncc([C@H](O)CO)cc2F)CC1` [Compound N6], for which, in series [2], the “aqueous solubility at pH 1.2” value is given as above 50 μM and the “aqueous solubility at pH 6.8” value is above 50 μM.

Turning to `O=C(Nc1ccc(C(F)(F)F)c(Cl)c1)N1CCC(F)(c2ncc([C@@H](O)CO)cc2F)CC1` [Compound P5], in series [3], the IC50 was 49.5 nM.

Turning to `O=C(Nc1ccc(C(F)(F)F)c(Cl)c1)N1CCC(F)(c2ncc([C@H](O)CO)cc2F)CC1` [Compound Q3], the IC50 in series [3] came to 14.3 ± 1.3 nM.

On to `O=C(Nc1ccc(C(F)(F)F)c(F)c1)N1CC=C(c2ncc([C@H](O)CO)cc2Cl)CC1` [Compound S1, (S)-3-Chloro-5-(1,2-dihydroxy-ethyl)-3′,6′-dihydro-2′H-[2,4]bipyridinyl-1′-carboxylic acid (3-fluoro-4-trifluoromethyl-phenyl)amide], for which, in series [2], the “aqueous solubility at pH 1.2” value was above 50 μM and the “aqueous solubility at pH 6.8” value is given as above 50 μM.

`O=C(Nc1ccc(C(F)(F)F)cc1)N1CC=C(c2ncc([C@H](O)CO)cc2F)CC1` [Compound U1]: in series [2], the “aqueous solubility at pH 1.2” value was above 50 μM and the “aqueous solubility at pH 6.8” value is reported as above 50 μM.

Turning to `O=C(Nc1ccc(C(F)(F)F)c(Cl)c1)N1CC=C(c2ncc([C@H](O)CO)cc2F)CC1` [Compound U3], in series [2], the “aqueous solubility at pH 1.2” value is listed as above 50 μM and the “aqueous solubility at pH 6.8” value is 26.4 μM.

For the molecule `O=C(Nc1ccc(C(F)(F)F)c(F)c1)N1CCC(F)(c2ncc([C@H](O)CO)cc2F)CC1` [Compound Y3], in series [2], the “aqueous solubility at pH 1.2” value is above 50 μM and the “aqueous solubility at pH 6.8” value stood at 17.4 μM.

In the case of `O=C(Nc1ccc(C(F)(F)F)cc1)N1CC=C(c2ncc([C@H](O)CO)cc2Cl)CC1` [Compound Z1, (S)-3-Chloro-5-(1,2-dihydroxy-ethyl)-3′,6′-dihydro-2′H-[2,4]bipyridinyl-1′-carboxylic acid (4-trifluoromethyl-phenyl)amide], the “time to maximum plasma concentration after administration” value in series [1] (animal plasma) was 2.5 h. Further, in series [1] (animal plasma, for a given dose), the “maximum plasma concentration relative to the maximum for compound 200” value worked out at 2.5 times. The “plasma concentration up to 24 h compared with compound 200” value in series [1] (up to 24 h) was “consistently greater”. In series [2], the “aqueous solubility at pH 1.2” value is listed as above 50 μM and the “aqueous solubility at pH 6.8” value is above 50 μM.

As a reminder, the aqueous solubility is the dissolved amount per volume that the medium holds. Low readings indicate a poorly soluble substance, high ones a readily soluble substance. Broadly, the IC50 is the concentration needed to halve the response being measured.

Values taken from patent US9365563B2, “TRPV1 antagonists including dihydroxy substituent and uses thereof” (Purdue Pharma L.P., priority 2007, dated 2016).
